In PMC4663795, “Alkanols inhibit voltage-gated K^+ channels via a distinct gating modifying mechanism that prevents gate opening” (Scientific Reports, 2015):
Values joined by “and” are separate entries in the source; they are usually repeats but may differ in a detail not shown here. Identical values can stand only once. Like-named read-outs stand apart in the source and are kept apart here.

Assays:
Shaker-IR-P475A [1] = target: T1, Shaker-IR-P475A (Drosophila melanogaster, UniProt P08510, DEL6-46/P475A); conditions: cited from earlier work
T1 construct: expressed in transfected cells; host or cells: HEK293
T1 sequence (P08510 other isoform, or with tags, fused parts or gaps DEL6-46/P475A): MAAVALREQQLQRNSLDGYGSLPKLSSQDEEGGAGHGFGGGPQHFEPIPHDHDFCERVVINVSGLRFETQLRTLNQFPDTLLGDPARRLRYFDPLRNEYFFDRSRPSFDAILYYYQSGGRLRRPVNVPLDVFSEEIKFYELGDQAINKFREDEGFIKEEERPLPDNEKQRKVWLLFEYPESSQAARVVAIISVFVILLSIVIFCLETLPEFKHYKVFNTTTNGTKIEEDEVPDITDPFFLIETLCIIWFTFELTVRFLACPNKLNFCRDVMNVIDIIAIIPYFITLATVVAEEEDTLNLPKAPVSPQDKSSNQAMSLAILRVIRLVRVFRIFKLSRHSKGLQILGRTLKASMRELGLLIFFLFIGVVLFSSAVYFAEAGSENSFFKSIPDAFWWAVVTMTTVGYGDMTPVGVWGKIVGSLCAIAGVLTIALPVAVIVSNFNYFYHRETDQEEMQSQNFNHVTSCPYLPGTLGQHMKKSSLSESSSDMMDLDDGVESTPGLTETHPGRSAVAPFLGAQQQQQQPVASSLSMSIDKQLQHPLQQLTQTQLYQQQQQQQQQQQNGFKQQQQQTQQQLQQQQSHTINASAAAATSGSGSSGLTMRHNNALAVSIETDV

Shaker-IR-W434F [2] = target: T2, Shaker-IR-W434F (Drosophila melanogaster, UniProt P08510, DEL6-46/W434F); experiment: cell-based; assay type: cell-based; conditions: for QV curve V1/2: voltage dependence of VSD movement; for gating charge immobilized (reduction in gating charge movement): general statement, no concentration given
T2 construct: expressed in transfected cells; host or cells: HEK293
T2 sequence (P08510 other isoform, or with tags, fused parts or gaps DEL6-46/W434F): as the sequence (P08510 other isoform, or with tags, fused parts or gaps DEL6-46/P475A) above, with W393F, A434P counted along it
From the text: (§1) The N-terminal deletion Δ6–46 Shaker clone (Shaker-IR), which removes fast inactivation, was used in this study. The W434F mutation, which yields a non-conducting Shaker-IR-W434F channel, and the P475A mutation were introduced as described previously. All channel constructs were expressed using a pGW1 expression vector. The plasmid that codes for the green fluorescent protein, used to identify transfected cells, was purchased from Clontech (Palo Alto, CA, USA). Plasmid DNA for mammalian expression was obtained by amplification in XL2 Bluescript cells (Stratagene), and afterwards isolated using the endotoxin-free Maxiprep kit (Macherey-Nagel, Düren, Germany). The cDNA concentration was determined by UV absorption.
(§2) HEK293 cells were cultured in Modified Eagle’s Medium (MEM) supplemented with 10% fetal bovine serum, 1% penicillin/streptomycin and 1% non-essential amino acids (Invitrogen, Carlsbad, CA, USA). Cells were transiently transfected with the appropriate channel DNA plasmids using polyethyleneimine that was purchased from Sigma-Aldrich (St Louis, MO, USA), details of procedure was described previously.
(§3) Whole-cell ionic IK or gating IG current measurements were done at room temperature (20 to 23 °C) using an Axopatch-200B amplifier and the recordings were digitized with a Digidata-1200 A acquisition system (Molecular Devices, Sunnyvale, CA, USA). Both IK and IG recordings were digitized at 10 kHz sampling rate after passing a 5 KHz Bessel low-pass filter. Command voltages and data storage were controlled with pClamp10 software. Patch pipettes were pulled from 1.2 mm quick-fill borosilicate glass capillaries (World Precision Instruments, Sarasota, FL, USA) with a P-2000 puller (Sutter Instrument Co., Novato, CA, USA) and afterwards heat-polished, to have patch pipettes with a resistance of approximately 1.5 MOhm determined with the filled pipette in the bath solution.
(§4) For IK measurements the cells were constantly superfused with external bath solution that contained (in mM) NaCl 130, KCl 4, CaCl2 1.8, MgCl2 1, HEPES 10, Glucose 10, adjusted to pH 7.35 with NaOH. The patch pipettes were filled with internal solution containing (in mM) KCl 110, K4BAPTA 5, K2ATP 5, MgCl2 1, HEPES 10, adjusted to pH 7.2 with KOH. For IG measurements the monovalent cations were replaced with N-methyl-D-glucamine (NMG^+). The bath solution contained (in mM) NMG^+ 140, HEPES 10, Glucose 10, MgCl2 1, CaCl2 1.8, titrated to pH 7.35 with HCl. The pipette solution contained (in mM) NMG^+ 140, HEPES 10, EGTA 10, MgCl2 1, titrated to pH 7.2 with HCl. Junction potentials were zeroed with the filled pipette in the bath solution and experiments were excluded from analysis if the voltage error estimate exceeded 5 mV after series resistance compensation. For IG measurements, leak currents and remaining capacitive currents were subtracted online using a −P/6 protocol (using a holding potential of −95 mV). IK recordings were not leak corrected.
(§5) For the highest concentration of 1-BuOH tested (300 mM), the osmolarity of the extracellular solution for IK or IG recordings increased by approximately 300 mOsm resulting in a total osmolarity of ~640 mOsm. […] All compounds were applied to the cells using a pressurized fast perfusion system equipped with a quartz micromanifold (ALA scientific, Farmingdale, NY, USA), allowing rapid exchange of the external solutions.
(§6) Details of pulse protocols used to elicit IK or IG recordings were adjusted to determine the biophysical properties of each construct adequately and are shown in the figures or described in legends. All the graphs were built using SigmaPlot 11.0 (Systat Software Inc., San Jose, CA, USA).

Shaker-IR channel = target: T3, Shaker-IR channel (Drosophila melanogaster, UniProt P08510, DEL6-46); experiment: cell-based; assay type: cell-based; conditions: for GV curve V1/2: voltage dependence of gate opening; for IC50: normalized steady-state IK amplitude at 0 mV, Hill fit, read-out: IC50 of ionic current (IK) inhibition; for Hill coefficient of IK inhibition concentration-response curve: steady-state IK at 0 mV
T3 construct: expressed in transfected cells; host or cells: HEK293
T3 sequence (P08510 other isoform, or with tags, fused parts or gaps DEL6-46): as the sequence (P08510 other isoform, or with tags, fused parts or gaps DEL6-46/P475A) above, with A434P counted along it
From the text: as §1, §2, §3, §4, §5, §6

Shaker-IR-W434F [3] = target: T2, Shaker-IR-W434F; parameters: method as in PMID 11463634; conditions: cited from earlier work
Shaker-IR-W434F-P475A = target: T4, Shaker-IR-W434F-P475A (Drosophila melanogaster, UniProt P08510, DEL6-46/P475A/W434F); assay type: cell-based
T4 construct: expressed in transfected cells; host or cells: HEK293
T4 sequence (P08510 other isoform, or with tags, fused parts or gaps DEL6-46/W434F/P475A): as the sequence (P08510 other isoform, or with tags, fused parts or gaps DEL6-46/P475A) above, with W393F counted along it
From the text: as §1, §2, §3, §4, §5, §6

Shaker-IR-P475A [4] = target: T1, Shaker-IR-P475A; experiment: cell-based; assay type: cell-based; conditions: for GV curve V1/2: from tail currents; for Hill coefficient of weighted τIKac concentration-response curve / IC50: weighted τIKac at +100 mV; for IC50: read-out: IC50 of acceleration of weighted τIKac
From the text: as §1, §2, §3, §4, §5, §6

[5] = integrated steady-state IGac normalized to control, read-out: IC50 of reduction in total gating charge
[6] = weighted τIGdeac at −90 mV, read-out: IC50 of acceleration of VSD deactivation time constant (τIGdeac)

Nc1ccncc1 [4-AP, 4-aminopyridine]
sensitivity of the P475A mutant to the drug (Shaker-IR-P475A [1]): insensitive | loss of gating charge movement (Shaker-IR-W434F [2]; 1 mM 4-AP): approximately 10% | inhibition at 30 µM (Shaker-IR channel; HEK293, read-out: steady-state IK inhibition): ~50% | reduction in gating charge movement (Shaker-IR-W434F [3]): 10%

CCCCO [1-BuOH, 1-Butanol]
QV curve 1st comp V1/2 (Shaker-IR-W434F-P475A; 300 mM 1-BuOH): −39.2 ± 1.4 mV | QV curve 1st comp k (Shaker-IR-W434F-P475A; 300 mM 1-BuOH): 16.2 ± 1.2 mV | QV curve 2nd comp V1/2 (Shaker-IR-W434F-P475A; 300 mM 1-BuOH): 52.2 ± 1.2 mV | QV curve 2nd comp k (Shaker-IR-W434F-P475A; 300 mM 1-BuOH): 9.1 ± 1.1 mV | effect on IK of the P475A mutant (Shaker-IR-P475A [4]): concentration-dependent increase in IK | GV curve slope factor k (Shaker-IR-P475A [4]; 100 mM 1-BuOH): 9.6 ± 0.4 mV | GV curve V1/2 (Shaker-IR-P475A [4]; 100 mM 1-BuOH): 62 ± 1 mV | GV curve slope factor k (Shaker-IR-P475A [4]; 300 mM 1-BuOH): 6.8 ± 0.7 mV | GV curve V1/2 (Shaker-IR-P475A [4]; 300 mM 1-BuOH): 50 ± 1 mV | Hill coefficient of weighted τIKac concentration-response curve (Shaker-IR-P475A [4]): 1.5 ± 0.4 | IC50 (Shaker-IR-P475A [4]): 58.8 ± 3 mM | Hill coefficient of gating charge reduction concentration-response curve (Shaker-IR-W434F [2]): 1.5 ± 0.2 | maximal reduction in charge movement (Shaker-IR-W434F [2]; 300 mM 1-BuOH): approximately 10% | τIGdeac at −120 mV (Shaker-IR-W434F [2]; 300 mM 1-BuOH): 0.48 ± 0.08 ms | extra reduction of gating charge movement on addition to 4-AP (Shaker-IR-W434F [2]; 300 mM 1-BuOH in continued presence of 1 mM 4-AP): did not result in an extra reduction of gating charge movement | QV curve V1/2 (Shaker-IR-W434F [2]; 300 mM 1-BuOH): −32.4 ± 3.4 mV | gating charge immobilized (reduction in gating charge movement) (Shaker-IR-W434F [2]): 10% | IC50 (Shaker-IR-W434F [2]; [5]): 88 ± 2 mM | Hill coefficient of τIGdeac concentration-response curve (Shaker-IR-W434F [2]; weighted τIGdeac at −90 mV): 1.3 ± 0.4 | IC50 (Shaker-IR-W434F [2]; [6]): 67 ± 1 mM | GV curve slope factor k (Shaker-IR channel; 50 mM 1-BuOH): 5.1 ± 0.7 mV | GV curve V1/2 (Shaker-IR channel; 50 mM 1-BuOH): −28.5 ± 2.3 mV | time constant of current recovery upon wash-out (Shaker-IR channel; after 50 mM 1-BuOH): 7.6 ± 2.1 s | time constant of development of IK inhibition (Shaker-IR channel; application of 50 mM 1-BuOH): 5.2 ± 1.2 s | IC50 (Shaker-IR channel): ~50 mM and 50 mM and 51.8 mM | Hill coefficient of IK inhibition concentration-response curve (Shaker-IR channel): 0.92 ± 0.04

CCCCCCO [1-HeOH, 1-Hexanol]
QV curve 1st comp V1/2 (Shaker-IR-W434F-P475A; 30 mM 1-HeOH): −35.3 ± 1.5 mV | QV curve 2nd comp V1/2 (Shaker-IR-W434F-P475A; 30 mM 1-HeOH): 50.2 ± 1.1 mV | QV curve 2nd comp k (Shaker-IR-W434F-P475A; 30 mM 1-HeOH): 3.6 ± 1.4 mV | effect on IK of the P475A mutant (Shaker-IR-P475A [4]): concentration-dependent increase in IK | GV curve slope factor k (Shaker-IR-P475A [4]; 10 mM 1-HeOH): 10.7 ± 0.6 mV | GV curve V1/2 (Shaker-IR-P475A [4]; 10 mM 1-HeOH): 64 ± 1 mV | GV curve slope factor k (Shaker-IR-P475A [4]; 30 mM 1-HeOH): 6.6 ± 0.6 mV | GV curve V1/2 (Shaker-IR-P475A [4]; 30 mM 1-HeOH): 49 ± 1 mV | Hill coefficient of weighted τIKac concentration-response curve (Shaker-IR-P475A [4]): 1.3 ± 0.3 | IC50 (Shaker-IR-P475A [4]): 4.6 ± 0.8 mM | Hill coefficient of gating charge reduction concentration-response curve (Shaker-IR-W434F [2]): 1.5 ± 0.2 | maximal reduction in charge movement (Shaker-IR-W434F [2]; 30 mM 1-HeOH): ~12% | τIGdeac at −120 mV (Shaker-IR-W434F [2]; 30 mM 1-HeOH): 0.53 ± 0.10 ms | QV curve V1/2 (Shaker-IR-W434F [2]; 30 mM 1-HeOH): −31.4 ± 0.9 mV | gating charge immobilized (reduction in gating charge movement) (Shaker-IR-W434F [2]): 10% | IC50 (Shaker-IR-W434F [2]; [5]): 13.8 ± 1.6 mM | Hill coefficient of τIGdeac concentration-response curve (Shaker-IR-W434F [2]; weighted τIGdeac at −90 mV): 1.6 ± 0.3 | IC50 (Shaker-IR-W434F [2]; [6]): 3 ± 0.4 mM | GV curve slope factor k (Shaker-IR channel; 3 mM 1-HeOH): 7.5 ± 0.9 mV | GV curve V1/2 (Shaker-IR channel; 3 mM 1-HeOH): −25.4 ± 1.2 mV | time constant of current recovery upon wash-out (Shaker-IR channel; after 3 mM 1-HeOH): 4.8 ± 1.7 s | time constant of development of IK inhibition (Shaker-IR channel; application of 3 mM 1-HeOH): 3.7 ± 0.7 s | IC50 (Shaker-IR channel): ~3 mM and 2.7 mM | Hill coefficient of IK inhibition concentration-response curve (Shaker-IR channel): 1.13 ± 0.22
